# “And” between values parts separate entries of the source, which are not always exact repeats. Equal entries are not always repeated. Positions of bridges follow the written chain, without caps; N, C: chain ends. Non-standard residues stand in square brackets, D forms with d. Residues, ends and D or L forms follow the SMILES beside them.
# What was measured:
# USP27x/ATXN7L3/ENY2 = biological target: T1, USP27x/ATXN7L3/ENY2 (Homo sapiens, UniProt A6NNY8); experiment: Inhibition of H2B DUB complexes, Ub-AMC cleavage: USP27x complex; type: biochemical; settings: 100 nM complex, 5 μM Ub-AMC
# T1 construct: made in house
# T1 sequence (A6NNY8 1-438): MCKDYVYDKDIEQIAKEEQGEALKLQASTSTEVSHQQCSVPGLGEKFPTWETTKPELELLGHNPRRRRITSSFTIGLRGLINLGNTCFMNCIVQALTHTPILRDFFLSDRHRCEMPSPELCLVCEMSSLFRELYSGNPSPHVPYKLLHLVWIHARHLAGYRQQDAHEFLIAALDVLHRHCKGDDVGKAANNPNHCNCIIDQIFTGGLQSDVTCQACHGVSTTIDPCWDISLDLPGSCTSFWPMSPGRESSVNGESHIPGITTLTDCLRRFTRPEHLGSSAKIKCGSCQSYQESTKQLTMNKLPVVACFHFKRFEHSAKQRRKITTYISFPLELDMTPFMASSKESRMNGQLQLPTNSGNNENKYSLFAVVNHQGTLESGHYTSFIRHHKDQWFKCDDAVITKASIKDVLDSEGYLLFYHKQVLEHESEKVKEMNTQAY
# T1 sequence (Q14CW9 1-347 partner): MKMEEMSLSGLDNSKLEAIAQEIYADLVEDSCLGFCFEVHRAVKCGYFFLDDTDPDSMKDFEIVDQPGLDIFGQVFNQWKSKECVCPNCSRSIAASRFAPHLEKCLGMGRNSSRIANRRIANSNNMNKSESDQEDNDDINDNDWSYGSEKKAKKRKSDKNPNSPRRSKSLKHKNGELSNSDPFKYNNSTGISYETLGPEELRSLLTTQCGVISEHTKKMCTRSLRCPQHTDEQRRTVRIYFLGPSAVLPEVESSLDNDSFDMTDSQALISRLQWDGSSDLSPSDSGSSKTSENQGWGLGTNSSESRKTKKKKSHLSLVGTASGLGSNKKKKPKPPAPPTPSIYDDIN
# T1 sequence (Q9NPA8 1-101 partner): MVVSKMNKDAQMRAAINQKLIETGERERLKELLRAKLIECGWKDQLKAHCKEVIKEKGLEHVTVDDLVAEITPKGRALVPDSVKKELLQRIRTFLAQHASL
# Experimental: Cleavage rates of 5 μM Ub-AMC were assayed for 75 nM USP22/ATXN7L3/ENY2/ATXN7 (hDUBm), 100 nM USP27x/ATXN7L3/ENY2, or 1000 nM USP51/ATXN7L3/ENY2. Rates were normalized to the uninhibited reaction in each case to determine the fraction of apparent activity.
# DUB specificity assays Ubiquitin-rhodamine(110)-glycine cleavage rates were measured for all DUBs available in the DUBprofiler™ panel with two independent replicates (44 in total; Ubiquigent). […] USP22 was not included in the panel, and is not represented in FIG. 12A. […] Initial cleavage rates of each complex were measured on a fixed concentration of 5 μM Ub-AMC.
# Heterotrimeric complexes containing USP27x and USP51 were purified, respectively, in complex with ENY2 and ATXN7L3. The activity of these complexes on Ub-AMC was compared to that of the human DUBm, which contains USP22, ENY2, ATXN7L3, and a fourth subunit, ATXN7, that anchors the DUBm to the rest of the SAGA complex.
# [1] = biological target: T2, human DUB module (hDUBm; USP22, ATXN7, ATXN7L3, ENY2) (Homo sapiens, UniProt Q9UPT9); experiment: Ub-AMC deubiquitination assay, human DUB module; type: biochemical; settings: Ki (apparent, Morrison approximation), Ub-AMC cleavage, 200 nM DUB, 1 μM Ub-AMC
# T2 construct: 6xHis (TEV-cleavable) (N, cleaved yes); made in house; host or cells: High Five insect cells (baculovirus, Bac2Bac; virus amplified in Sf9)
# Experimental: FIG. 2A is a graph of initial rates of Ub-AMC cleavage by hDUB module as a function of substrate concentration. […] FIGS. 2B-2G are graphs of each cyclic peptide, as indicated, tested for its ability to inhibit Ub-AMC cleavage in the presence of increasing amounts of the peptide into a reaction with a fixed amount of DUB (200 nM) and Ub-AMC (1 μM). Ki values were determined for each curve using the Morrison Ki approximation.
# Ub-AMC deubiquitination assay A working stock mixture of either yDUBm or hDUBm was prepared in the presence of either DMSO (mock) or a dilution series of the cyclic peptide. […] Each enzyme:peptide mixture was incubated for 30 min at 30° C. in the case of yDUBm, and 37° C. in the case of hDUBm, with each enzyme complex at 1.033× the desired concentration (207 nM). The enzyme:peptide mixture ([…]) was added to 1 μL of 30 μM U b-AMC (7-amino-4-methylcoumarin) (Boston Biochem), for a final concentration of 200 nM DUBm, the indicated cyclic peptide concentration, and 1 μM Ub-AMC. DUB activity was measured by observing the increase in AMC fluorescence in a plate reader, and the initial rate of fluorescence increase was calculated and plotted as a function of inhibitor concentration (FIGS. 2B-2I). The Ki values were determined using the Morrison approximation of enzyme inhibition equilibria within Prism (Graphpad).
# The cyclic peptides that constituted potential inhibitors were chemically synthesized by solid phase peptide synthesis and tested for their effectiveness and specificity as inhibitors in vitro. Since the enzyme kinetics of the human DUB module had not previously been characterized, hDUBm activity was assayed using the fluorogenic substrate, ubiquitin-amino methyl coumarin (Ub-AMC) (FIG. 2A).
# T2 sequence (Q9UPT9 whole entry, one chain of several): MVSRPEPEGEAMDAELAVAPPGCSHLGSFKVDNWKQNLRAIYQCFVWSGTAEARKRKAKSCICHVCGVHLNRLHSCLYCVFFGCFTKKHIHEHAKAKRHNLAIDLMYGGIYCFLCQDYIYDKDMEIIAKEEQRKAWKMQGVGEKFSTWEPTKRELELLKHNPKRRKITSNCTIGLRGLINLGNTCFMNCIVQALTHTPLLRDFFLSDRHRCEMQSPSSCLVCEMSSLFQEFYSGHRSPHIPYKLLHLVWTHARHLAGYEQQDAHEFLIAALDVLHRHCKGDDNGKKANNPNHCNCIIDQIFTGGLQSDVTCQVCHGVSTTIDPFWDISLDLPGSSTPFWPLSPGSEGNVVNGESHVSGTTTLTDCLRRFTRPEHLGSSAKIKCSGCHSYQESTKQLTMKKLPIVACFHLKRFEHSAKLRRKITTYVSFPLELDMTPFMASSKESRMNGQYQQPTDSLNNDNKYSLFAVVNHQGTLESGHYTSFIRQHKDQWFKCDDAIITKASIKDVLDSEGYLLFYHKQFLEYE
# T2 sequence (O15265 3-151 partner limits assumed, one chain of several): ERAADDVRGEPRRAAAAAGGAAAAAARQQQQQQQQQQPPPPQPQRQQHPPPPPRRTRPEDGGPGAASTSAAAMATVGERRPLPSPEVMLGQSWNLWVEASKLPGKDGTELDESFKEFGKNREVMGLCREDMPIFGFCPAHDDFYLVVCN
smiles,measurement,setting,value
CC[C@H](C)[C@@H]1NC(=O)[C@H](C)NC(=O)[C@@H](Cc2ccc(O)cc2)NC(=O)CSC[C@@H](C(N)=O)NC(=O)[C@H](CC(C)C)NC(=O)[C@H](CC(C)C)NC(=O)[C@H]([C@@H](C)O)NC(=O)[C@H]([C@@H](C)O)NC(=O)[C@H](CCCCN)NC(=O)CNC(=O)[C@H](CCCNC(=N)N)NC(=O)[C@H](Cc2ccc(O)cc2)NC(=O)[C@H](CO)NC1=O [hD1] ({CH2CO}-[dY]AISYRGKTTLLC-NH2; thioether N-13),IC50,USP27x/ATXN7L3/ENY2,3 µM
same,Ki,[1],< 0.1 µM and 0.0206 µM

# Reference: patent publication US20240228543A1, “CYCLIC PEPTIDE INHIBITORS OF USP22” (THE JOHNS HOPKINS UNIVERSITY, priority 2021, published 2024)
